This note sets out measurements from patent US12233047B2, “Pharmaceutical combination and use thereof” (ASCENTAGE PHARMA (SUZHOU) CO., LTD., priority 2019, dated 2025).

One assay concerns the target T1, FLT3 (D835H) (Homo sapiens, UniProt P36888, D835H).
T1 construct: host or cells: T7 phage in E. coli (BL21-derived) or HEK-293
T1 sequence (P36888 27-993 D835H): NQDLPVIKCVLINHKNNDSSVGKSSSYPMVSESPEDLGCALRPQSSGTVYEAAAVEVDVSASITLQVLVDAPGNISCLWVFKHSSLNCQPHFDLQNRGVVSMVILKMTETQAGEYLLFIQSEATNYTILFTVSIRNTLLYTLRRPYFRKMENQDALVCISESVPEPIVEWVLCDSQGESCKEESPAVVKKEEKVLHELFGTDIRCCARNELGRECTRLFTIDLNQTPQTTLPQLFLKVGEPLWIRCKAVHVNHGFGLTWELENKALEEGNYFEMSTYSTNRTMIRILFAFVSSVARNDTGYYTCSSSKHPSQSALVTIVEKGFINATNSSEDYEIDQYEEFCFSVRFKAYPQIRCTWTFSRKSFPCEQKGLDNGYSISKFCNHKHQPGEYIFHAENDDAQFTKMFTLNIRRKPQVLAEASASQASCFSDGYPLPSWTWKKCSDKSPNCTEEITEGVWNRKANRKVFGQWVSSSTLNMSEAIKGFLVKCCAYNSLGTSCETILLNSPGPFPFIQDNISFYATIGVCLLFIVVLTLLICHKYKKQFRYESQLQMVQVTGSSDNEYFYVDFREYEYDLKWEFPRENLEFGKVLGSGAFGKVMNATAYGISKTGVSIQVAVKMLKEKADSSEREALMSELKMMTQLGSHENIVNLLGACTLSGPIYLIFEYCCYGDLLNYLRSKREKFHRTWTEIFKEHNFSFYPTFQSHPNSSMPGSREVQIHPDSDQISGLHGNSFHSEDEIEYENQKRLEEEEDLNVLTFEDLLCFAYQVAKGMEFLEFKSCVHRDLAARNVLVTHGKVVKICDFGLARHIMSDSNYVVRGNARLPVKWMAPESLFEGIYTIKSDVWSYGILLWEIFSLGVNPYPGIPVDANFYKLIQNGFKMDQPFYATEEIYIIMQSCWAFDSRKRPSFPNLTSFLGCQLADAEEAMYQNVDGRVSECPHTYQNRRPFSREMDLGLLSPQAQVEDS
Put plainly: KINOMEscan kinase binding assay, FLT3 (D835H). The method, then:
The kinase assay was conducted using KINOMEscan™.
Kinase-tagged T7 phage strains were grown in parallel in 24-well blocks in an E. coli host derived from the BL21 strain. E. coli were grown to log-phase and infected with T7 phage from a frozen stock (multiplicity of infection=0.4) and incubated with shaking at 32° C. until lysis (90-150 minutes). The lysates were centrifuged (6,000×g) and filtered (0.2 μm) to remove cell debris. The remaining kinases were produced in HEK-293 cells and subsequently tagged with DNA for qPCR detection. Streptavidin-coated magnetic beads were treated with biotinylated small molecule ligands for 30 minutes at room temperature to generate affinity resins for kinase assays. The liganded beads were blocked with excess biotin and washed with blocking buffer (SeaBlock (Pierce), 1% BSA, 0.05% Tween 20, 1 mM DTT) to remove unbound ligand and to reduce non-specific phage binding. Binding reactions were assembled by combining kinases, liganded affinity beads, and test compound (Compound 23) in 1× binding buffer (20% SeaBlock, 0.17×PBS, 0.05% Tween 20, 6 mM DTT). Test compound were prepared as 40× stocks in 100% DMSO and directly diluted into the assay. All reactions were performed in polypropylene 384-well plates in a final volume of 0.04 ml. […] The kinase concentration in the eluates was measured by qPCR. […]

Assay [1] concerns Human AML cell line MOLM-13 (FLT3-ITD positive and wild type TP53 gene). Kind of assay: Human MOLM-13 AML systemic mouse xenograft model, survival. The assay is classed as in vivo. The following applies: MOLM-13 systemic model, Compound 23 10 mg/kg, Compound C 20 mg/kg, p.o. q2d × 21 d. The method, then:
The formulation of Compound C was prepared as homogenous suspension in 0.2% HPMC using a mortar. The drug suspension was prepared every three days or once a week and placed at 4° C. when not in use. Before use, the drug suspension was placed at room temperature and shaken to mix well. The formulation of Compound C was administered to mice via p.o. in a volume of 10 mL/kg.
The formulation of Compound 23 was prepared in 0.2% HPMC in a mortar to generate homogenous suspension. The drug suspension was prepared once every other day and placed at 4° C. when not in use. Before use, the drug suspension was placed at room temperature and shaken well. The formulation of Compound 23 was administered to mice via p.o. in a volume of 10 mL/kg.
MOLM-13 cell lines (Human AML cell line MOLM-13 (FLT3-ITD positive and wild type TP53 gene)) were maintained in RPMI-1640 (Cat. C11875500BT, GIBCO) with 10% fetal bovine serum (Cat. 10099-141, GIBCO), 1% L-glutamine, 100 U/mL penicillin G and 100 μg/mL streptomycin (Cat. GNM15140, Hangzhou Geno Biomedical Technology Co., Ltd). Cells were incubated at 37° C. in a humidified incubator with 5% CO2.
Six to eight weeks old, female, NOD SCID and BALB/c nude mice were used. Animals were obtained from Vital River Laboratories (VRL, Beijing, China, license number SCXK(J) 2012-0001 and SCXK(J) 2016-0006). The body weights were 17-24 g.
MOLM-13 systemic tumor model were established by injecting tumor cells into the tail vein (10×10^6 cells/mouse) under the sterile condition. To establish the MOLM-13 systemic model, all animals were intraperitoneally injected (i.p.) with cyclophosphamide (150 mg/kg) for two consecutive days before the inoculation of MOLM-13 cells. On the third day after cell inoculation, animals were randomized into 10 mice per group and treatment was initiated (day 1) according to Table 2.
The animals were euthanized when the experimental animals had symptoms such as weight loss and weight loss greater than 20%, limb paralysis, tumor metastasis to the eye causing ocular protrusion, tumor metastasis to the abdominal cavity causing abdominal enlargement. These severe health issues were considered as the same as animal death caused by tumor growth and the affected animals were sacrificed immediately.
The date of the last mouse died (the last measurement) was used for analysis of median overall survival and the generation of Kaplan-Meier plots. Survival curves of different treatment groups were compared using log-rank test with Bonferroni's multiple test. All data were analyzed in SPSS version 18.0 (IBM, Armonk, NY, U.S.A.). Prism version 6 (GraphPad Software Inc., San Diego, CA, U.S.A.) was used for graphic presentation.
Background: A xenograft is tissue or cells of one species grown in another, often human tumour cells in immunodeficient mice.

For `Cc1ccc(C(=O)Nc2ccc(CN3CCN(C)CC3)c(C(F)(F)F)c2)cc1C#Cc1cnc2[nH]ncc2c1` [Compound 23, 3-(2-(1H-pyrazolo[3,4-b]pyridin-5-yl)ethynyl)-4-methyl-N-(4-((4-methylpiperazin-1-yl)methyl)-3-(trifluoromethyl)phenyl)benzamide], on FLT3 (D835H) (10 nM), the “% Ctrl@10 nM” value worked out at 18 % Ctrl. Further, the “% Ctrl@100 nM” value at FLT3 (D835H) (100 nM) is 2.2 % Ctrl. Besides, the “Median survival time of mice” value in assay [1] (vehicle 19 days) is recorded as 29 days. Besides, the “Prolonged survival time of mice” value in assay [1] (versus vehicle) was 10 days.
